The results in this text go back to US20060063828A1 (priority 2004, published 2006).

Structures are written as SMILES.

The subject of one data set is Balb/C mice. Description: Asthma Protocol (ovalbumin sensitized and challenged mice, bronchoaveolar lavage cell counts). Type of data set: in vivo. The settings on record: ovalbumin sensitized and aerosol challenged, lavage fluid cell counts. The method, then:
Balb/C mice (6-8 weeks old) are sensitized to ovalbumin (ova) (8 ug ova absorbed in 3.3 mg Alum inject) on days 0 and 5. On day 12, the mice were aerosol challenged with 0.5% ovalbumin dissolved in sterile saline for 1 h in the AM, and then again in the PM (at least 4 h apart). On day 14, the mice were anesthetized with ketamine/xylazine/acepromazine cocktail, exsanguinated, and then euthanized. Following blood collection, bronchoaveolar lavage was performed on each animal. Total cell counts were conducted on the lavage fluid. The lavage fluid was processed and slides were made by spinning the samples with a cytospin centrifuge. Slides were airdried and stained using Diff-Quik® stain. Cell differentials of the lavage fluid were completed at the conclusion of the study. Statistical analysis involved ANOVA and Tukey-Kramer post hoc tests. Compounds were administered by subcutaneous injection twice daily from day 11-13. The formulations used contained various mixtures of the following excipients (pharmasolve, cremophor RH 40, tween 80, PEG 300). See Biological Table 3

In a further data set the test system is VCAM-1. The data set can be described thus: In Vitro VCAM-1 Assay (ELISA of VCAM-1 on TNF-α stimulated endothelial cells). Type of data set: cell-based. The note with it: Endothelial cell; primary human aortic (HAEC) or pulmonary (HPAEC) endothelial cells, TNF-α (1 ng/ml), approximately 16 hours. On the procedure: Cell Culture and compound dosing: Cultured primary human aortic (HAEC) or pulmonary (HPAEC) endothelial cells were obtained from Clonetics, Inc., and were used below passage 9. Cells were seeded in 96 well plates such that they would reach 90-95% confluency by the following day. On the following day the cells were stimulated with TNF-α (1 ng/ml) in the presence or absence of compounds dissolved in DMSO such that the final concentration of DMSO is 0.25% or less. To establish a dose curve for each compound, four concentrations in 2- to 5-fold increments were used. Cells were exposed to TNF-α and compounds for approximately 16 hours. The next day the cells were examined under microscope to score for visual signs of toxicity or cell stress.
Following 16 hr exposure to TNF-α and compound the media was discarded and the cells were washed once with Hanks Balanced Salt Solution (HBSS)/Phosphate buffered saline (PBS) (1:1). Primary antibodies against VCAM-1 (0.25 μg/ml in HBSS/PBS+5% FBS) were added and incubated for 30-60 minutes at 37° C. Cells were washed with HBSS/PBS three times, and secondary antibody Horse Radish Peroxidase (HRP)-conjugated goat anti-mouse IgG (1:500 in HBSS/PBS+5% FBS) were added and incubated for 30 minutes at 37° C. Cells were washed with HBSS/PBS four time and TMB substrate were added and incubated at room temperature in the dark until there was adequate development of blue color. The length of time of incubation was typically 5-15 minutes. 2N sulfuric acid was added to stop the color development and the data was collected by reading the absorbance on a BioRad ELISA plate reader at OD 450 nm. The results are expressed as IC50 values (the concentration (micromolar) of compound required to inhibit 50% of the maximal response of the control sample stimulated by TNF-α only).

For a further data set, the system named is Male Lewis rats. The data set can be described thus: Rheumatoid Arthritis Protocol (adjuvant-induced paw swelling). Type of data set: in vivo. The settings on record: M. butyricum adjuvant. The method, then: Male Lewis rats (150-175 g) from Charles River Laboratories were anesthetized on day 0 with 3-5% isoflurane anesthesia while the tail base was shaved and adjuvant mixture was injected. 50 μL of adjuvant (10 mg/ml M. butyricum in mineral oil) was injected subcutaneously into two sites at the tail base. Paw swelling was monitored using a plethysmometer (UGO Basile), after shaving each leg to the level of the Achilles tendon to mark the level of immersion. A baseline paw measurement for both hindpaws was taken between […] a second measurement was taken on day 8. Onset of paw swelling occurred rapidly between days 8-11 and daily measurements were performed every weekday between day 8 and day 14. Compounds of the invention and vehicles were dosed therapeutically (d8-13) after swelling was confirmed. Solutions were injected subcutaneously or given orally by gavage 1-2 times per day. From day 0, rats were weighed on days 0, 8, 11, and 14 and overall health was monitored. Plasma drug levels, if desired, were measured in tail-vein derived blood samples taken on day 13. On day 14, blood samples were obtained by cardiac puncture, rats were euthanized with CO2, selected organs were removed and both hindpaws were amputated and placed in 10% buffered formalin for histopathological analysis. See Biological Table 2.

For orientation: IC50 means the concentration needed to halve the response being measured. For orientation: melting point means the temperature, or range, at which the solid turns liquid. `C=C(C(=O)c1c(OC)ccc(-c2cccs2)c1OC)c1ccc(C(=O)O)cc1` [Example 30, 4-[1-(2,6-Dimethoxy-3-thien-2-yl-benzoyl)-vinyl]-benzoic acid] came in with a melting point of 193 to 195 °C. For the same molecule, the “% Inhibition 6 mg/kg sq, bid, d11-13” value in the data set with Balb/C mice amounted to 45%. In the data set with VCAM-1, the half-maximal inhibitory concentration (IC50) was less than 1000 nM. Besides, the “% Inhibition 20 mg/kg sq, bid, d8-13” value in the data set with Male Lewis rats turned out to be 77%.
Take `C=C(C(=O)c1c(OC)cccc1OC)c1ccc(OC(C)(C)C(=O)O)c(-c2cccs2)c1` [Example 37, 2-{4-[1-(2,6-Dimethoxy-benzoyl)-vinyl]-2-thien-2-yl-phenoxy}-2-methyl-propionic acid]: the melting point is 56.5 °C (dec.). In the data set with Balb/C mice, the “% Inhibition 6 mg/kg sq, bid, d11-13” value turned out to be 27%. For the same molecule, in the data set on VCAM-1, the 50% inhibitory concentration (IC50) was less than 6000 nM.
Consider `C=C(C(=O)c1ccc(C(=O)O)cc1)c1cc(-c2cccs2)ccc1OC` [Example 8, 4-[2-(2-Methoxy-5-thien-2-yl-phenyl)-acryloyl]-benzoic acid], for which, in the data set on Balb/C mice, the “% Inhibition 6 mg/kg sq, bid, d11-13” value is recorded as 50%. In the data set on VCAM-1, this molecule gave an IC50 of less than 1000 nM. Further, the “% Inhibition 20 mg/kg sq, bid, d8-13” value in the data set on Male Lewis rats is 44%.
